Measured values as given in patent US10781181B2, “N-((het) arylmethyl)-heteroaryl-carboxamides compounds as plasma kallikrein inhibitors” (Kalvista Pharmaceuticals Limited, priority 2014, dated 2020).
pIC50: −log10 of the molar value. Read-outs that look alike come from different tables or passages of the source.

What was measured:
Type in all cases: biochemical
Human KLK1 = Human KLK1 (Homo sapiens (Human), UniProt P06870); assay: Determination of the IC50 for KLK1; settings: human KLK1, 25° C., substrate H-DVal-Leu-Arg-AFC
Sequence of Human KLK1 (P06870 25-262): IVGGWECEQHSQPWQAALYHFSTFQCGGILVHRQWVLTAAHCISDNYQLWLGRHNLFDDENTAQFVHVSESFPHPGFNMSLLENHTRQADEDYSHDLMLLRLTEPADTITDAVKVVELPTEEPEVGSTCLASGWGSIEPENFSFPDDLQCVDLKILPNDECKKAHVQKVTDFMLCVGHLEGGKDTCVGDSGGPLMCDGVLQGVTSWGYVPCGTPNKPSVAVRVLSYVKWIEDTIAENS
Protocol: Determination of the IC50 for KLK1
(§1) Human KLK1 (Callbiochem) was incubated at 25° C. with the fluorogenic substrate H-DVal-Leu-Arg-AFC and various concentrations of the test compound. Residual enzyme activity (initial rate of reaction) was determined by measuring the change in […] at 410 nm and the IC50 value for the test compound was determined.

Human FXIa = Human FXIa (Homo sapiens (Human), UniProt P03951); assay: Determination of the % inhibition for FXIa; settings: read-out: % Inhibition @ 40 μM (human FXIa)
Sequence of Human FXIa (P03951 388-625 limits assumed): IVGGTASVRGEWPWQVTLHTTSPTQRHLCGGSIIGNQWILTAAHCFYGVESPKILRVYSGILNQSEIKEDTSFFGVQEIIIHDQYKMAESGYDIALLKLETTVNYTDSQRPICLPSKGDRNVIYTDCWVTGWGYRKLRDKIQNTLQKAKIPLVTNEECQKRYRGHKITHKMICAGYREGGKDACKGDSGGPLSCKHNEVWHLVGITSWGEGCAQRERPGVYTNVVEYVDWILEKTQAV
Sequence of Human FXIa (P03951 19-387 partner limits assumed): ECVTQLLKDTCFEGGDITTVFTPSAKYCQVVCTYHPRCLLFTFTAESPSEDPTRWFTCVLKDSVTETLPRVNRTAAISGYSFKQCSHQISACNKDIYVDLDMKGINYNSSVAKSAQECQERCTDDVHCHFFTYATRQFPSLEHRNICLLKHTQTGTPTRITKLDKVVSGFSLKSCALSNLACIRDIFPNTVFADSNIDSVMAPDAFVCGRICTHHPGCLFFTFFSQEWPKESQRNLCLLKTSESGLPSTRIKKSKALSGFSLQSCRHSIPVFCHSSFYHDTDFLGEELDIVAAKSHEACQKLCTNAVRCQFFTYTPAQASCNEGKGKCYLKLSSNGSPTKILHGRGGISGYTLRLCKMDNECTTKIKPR
Protocol: Determination of the % Inhibition for FXIa
Human FXIa (Enzyme Research Laboratories) was incubated at 25° C. with the fluorogenic substrate Z-Gly-Pro-Arg-AFC and 40 μM of the test compound. Residual enzyme activity (initial rate of reaction) was determined by measuring the change in […].

Human plasma kallikrein = Human plasma kallikrein (Homo sapiens (Human), UniProt P03952); assay: Determination of the IC50 for plasma kallikrein; settings: read-out: IC50 (human PKal)
Sequence of Human plasma kallikrein (P03952 391-638): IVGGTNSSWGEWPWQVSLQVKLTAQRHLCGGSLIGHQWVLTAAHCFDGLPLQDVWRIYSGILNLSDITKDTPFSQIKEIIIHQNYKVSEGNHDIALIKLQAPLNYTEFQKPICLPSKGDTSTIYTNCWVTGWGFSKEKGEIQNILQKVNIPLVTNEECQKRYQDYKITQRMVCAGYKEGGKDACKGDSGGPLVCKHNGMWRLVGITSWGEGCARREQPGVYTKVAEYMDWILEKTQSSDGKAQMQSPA
Sequence of Human plasma kallikrein (P03952 20-390 partner): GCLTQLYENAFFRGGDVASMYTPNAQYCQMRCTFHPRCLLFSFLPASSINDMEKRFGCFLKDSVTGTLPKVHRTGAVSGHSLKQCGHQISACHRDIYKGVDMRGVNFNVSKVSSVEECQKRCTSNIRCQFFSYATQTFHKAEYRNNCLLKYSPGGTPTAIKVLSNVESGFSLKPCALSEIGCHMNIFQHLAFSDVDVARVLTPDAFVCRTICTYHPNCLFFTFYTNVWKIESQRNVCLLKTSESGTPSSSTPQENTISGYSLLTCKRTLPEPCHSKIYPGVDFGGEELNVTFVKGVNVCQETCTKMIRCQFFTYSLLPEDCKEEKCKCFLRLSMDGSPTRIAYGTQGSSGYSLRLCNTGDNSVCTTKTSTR
Protocol: Determination of the IC50 for Plasma Kallikrein
as §1, with “plasma kallikrein (Protogen)” for “KLK1 (Callbiochem)”, “H-DPro-Phe-Arg-AFC” for “H-DVal-Leu-Arg-AFC”

[1] = 40 μM of the test compound, human FXIa, 25° C.

SMILES | pIC50 (Human KLK1) | inhibition at 40 µM (Human FXIa; [1]) | pIC50 (Human plasma kallikrein) | inhibition at 40 µM (Human FXIa)
COCc1nn(Cc2ccc(Cn3ccccc3=O)cc2)cc1C(=O)NCCOc1cc(Cl)ccc1F [Example 9, N-[2-(5-chloro-2-fluorophenoxy)ethyl]-3-(methoxymethyl)-1-({4-[(2-oxopyridin-1-yl)methyl]phenyl}methyl)pyrazole-4-carboxamide] | < 5.00 | 0% | 6.72 | 
Cc1ccc(Cl)cc1OCCNC(=O)c1cn(Cc2ccc(Cn3ccccc3=O)cc2)nc1N [Example 14, 3-amino-N-[2-(5-chloro-2-methylphenoxy)ethyl]-1-({4-[(2-oxopyridin-1-yl)methyl]phenyl}methyl)pyrazole-4-carboxamide] | < 4.40 | 0% | 6.79 | 
Nc1nn(Cc2ccc(Cn3ccccc3=O)cc2)cc1C(=O)NCCOc1cccc(Cl)c1 [Example 1] | < 5.00 | 2% | 8.54 | 
Nc1nn(Cc2ccc(Cn3ccccc3=O)cc2)cc1C(=O)NCC(=O)Nc1ccccc1Cl [Example 3, 2-{[3-amino-1-({4-[(2-oxopyridin-1-yl)methyl]phenyl}methyl)pyrazol-4-yl]formamido}-N-(2-chlorophenyl)acetamide] | < 5.00 | 0% | 5.26 | 
CN(CCNC(=O)c1cn(Cc2ccc(Cn3ccccc3=O)cc2)nc1N)c1cccc(Cl)c1 [Example 41, 3-amino-N-{2-[(3-chlorophenyl)(methyl)amino]ethyl}-1-({4-[(2-oxopyridin-1-yl)methyl]phenyl}methyl)pyrazole-4-carboxamide] | < 4.40 | 0% | 6.58 | 
Nc1nn(Cc2ccc(Cn3ccccc3=O)cc2)cc1C(=O)N[C@H]1CCN(Cc2cccc(Cl)c2)C1 [Example 109, 3-amino-N-[(3S)-1-[(3-chlorophenyl)methyl]pyrrolidin-3-yl]-1-({4-[(2-oxopyridin-1-yl)methyl]phenyl}methyl)pyrazole-4-carboxamide] | < 4.40 | 0% | 6.42 | 
C[C@H](NC(=O)c1cn(Cc2ccc(Cn3ccccc3=O)cc2)nc1N)C(=O)N(C)c1cccc(Cl)c1 [Example 116, (2S)-2-{[3-amino-1-({4-[(2-oxopyridin-1-yl)methyl]phenyl}methyl)pyrazol-4-yl]formamido}-N-(3-chlorophenyl)-N-methylpropanamide] | < 4.40 | 0% | 6.41 | 
Nc1nn(Cc2ccc(Cn3ccccc3=O)cc2)cc1C(=O)NCCOc1cc(Cl)ccc1Cl [Example 34, 3-amino-N-[2-(2,5-dichlorophenoxy)ethyl]-1-({4-[(2-oxopyridin-1-yl)methyl]phenyl}methyl)pyrazole-4-carboxamide] | < 4.40 | 7% | 7.03 | 
Nc1nn(Cc2ccc(Cn3ccccc3=O)cc2)cc1C(=O)NCCOc1cncc(Cl)c1 [Example 18, 3-amino-N-{2-[(5-chloropyridin-3-yl)oxy]ethyl}-1-({4-[(2-oxopyridin-1-yl)methyl]phenyl}methyl)pyrazole-4-carboxamide] | < 4.40 | 0% | 5.70 | 
CN(C)c1nn(Cc2ccc(Cn3ccccc3=O)cc2)cc1C(=O)NCCOc1cccc(Cl)c1 [Example 35, N-[2-(3-chlorophenoxy)ethyl]-3-(dimethylamino)-1-({4-[(2-oxopyridin-1-yl)methyl]phenyl}methyl)pyrazole-4-carboxamide] | < 4.40 | 1% | 6.91 | 
Nc1nn(Cc2ccc(C(=O)O)cc2)cc1C(=O)NCCOc1cccc(Cl)c1 [Example 69, 4-[(3-amino-4-{[2-(3-chlorophenoxy)ethyl]carbamoyl}pyrazol-1-yl)methyl]benzoic acid] | < 4.40 |  | < 5.00 | 0%
Nc1nn(Cc2nc(Cc3ccccc3)no2)cc1C(=O)NCCOc1cccc(Cl)c1 [Example 90, 3-amino-1-[(3-benzyl-1,2,4-oxadiazol-5-yl)methyl]-N-[2-(3-chlorophenoxy)ethyl]pyrazole-4-carboxamide] | < 4.40 | 0% | < 5.00 | 
Nc1nn(Cc2ccc(Cn3ccccc3=O)cc2)cc1C(=O)N[C@H]1CCN(c2cccc(Cl)c2)C1 [Example 105, 3-amino-N-[(3S)-1-(3-chlorophenyl)pyrrolidin-3-yl]-1-({4-[(2-oxopyridin-1-yl)methyl]phenyl}methyl)pyrazole-4-carboxamide] | < 4.40 | 0% | 8.42 | 
Nc1nn(Cc2ccc(Cn3ccccc3=O)cc2)cc1C(=O)NCCCc1cccc(Cl)c1 [Example 42, 3-amino-N-[3-(3-chlorophenyl)propyl]-1-({4-[(2-oxopyridin-1-yl)methyl]phenyl}methyl)pyrazole-4-carboxamide] | < 4.40 | 0% | 8.49 | 
Nc1nn(Cc2ccc(Cn3ccccc3=O)cc2)cc1C(=O)N[C@@H]1CCN(Cc2cccc(Cl)c2)C1 [Example 108, 3-amino-N-[(3R)-1-[(3-chlorophenyl)methyl]pyrrolidin-3-yl]-1-({4-[(2-oxopyridin-1-yl)methyl]phenyl}methyl)pyrazole-4-carboxamide] | < 4.40 | 0% | 6.52 | 
Nc1nn(Cc2cccc(Br)c2)cc1C(=O)NCCOc1cccc(Cl)c1 [Example 56, 3-amino-1-[(3-bromophenyl)methyl]-N-[2-(3-chlorophenoxy)ethyl]pyrazole-4-carboxamide] | < 4.40 |  | 5.07 | 0%
CC(C)C(=O)N(C)Cc1ccc(Cn2cc(C(=O)NCCOc3cccc(Cl)c3)c(N)n2)cc1 [Example 84, 3-amino-N-[2-(3-chlorophenoxy)ethyl]-1-({4-[(N,2-dimethylpropanamido)methyl]phenyl}methyl)pyrazole-4-carboxamide] | < 4.40 | 3% | 6.14 | 

Further lines, with some results ahead:

pIC50 (Human KLK1) | inhibition at 40 µM (Human FXIa; [1]) | pIC50 (Human plasma kallikrein) | SMILES | inhibition at 40 µM (Human FXIa)
< 4.40 | 59% | 6.49 | Nc1nn(Cc2ccnc(N3CCCC3)c2)cc1C(=O)NCCOc1cccc(Cl)c1 [Example 50, 3-amino-N-[2-(3-chlorophenoxy)ethyl]-1-{[2-(pyrrolidin-1-yl)pyridin-4-yl]methyl}pyrazole-4-carboxamide] | 
< 4.40 | 0% | 5.04 | Nc1nn(Cc2ccc(-n3cccn3)nc2)cc1C(=O)NCCOc1cccc(Cl)c1 [Example 88, 3-amino-N-[2-(3-chlorophenoxy)ethyl]-1-{[6-(pyrazol-1-yl)pyridin-3-yl]methyl}pyrazole-4-carboxamide] | 
< 4.40 | 0% | 6.47 | Nc1nn(Cc2ccc(-n3ccccc3=O)cc2)cc1C(=O)NCCOc1cccc(Cl)c1 [Example 52, 3-amino-N-[2-(3-chlorophenoxy)ethyl]-1-{[4-(2-oxopyridin-1-yl)phenyl]methyl}pyrazole-4-carboxamide] | 
< 4.40 | 0% | 5.44 | Nc1nn(Cc2ccc(COc3ncccn3)cc2)cc1C(=O)NCCOc1cccc(Cl)c1 [Example 75, 3-amino-N-[2-(3-chlorophenoxy)ethyl]-1-({4-[(pyrimidin-2-yloxy)methyl]phenyl}methyl)pyrazole-4-carboxamide] | 
< 4.40 | 9% | 5.23 | Nc1nn(Cc2ccc(-c3ncccn3)cc2)cc1C(=O)NCCOc1cccc(Cl)c1 [Example 79, 3-amino-N-[2-(3-chlorophenoxy)ethyl]-1-{[4-(pyrimidin-2-yl)phenyl]methyl}pyrazole-4-carboxamide] | 
< 4.40 | 4% | < 5.00 | CNC(=O)CN(C)c1cc(Cn2cc(C(=O)NCCOc3cccc(Cl)c3)c(N)n2)ccn1 [Example 74, 3-amino-N-[2-(3-chlorophenoxy)ethyl]-1-[(2-{methyl[(methylcarbamoyl)methyl]amino}pyridin-4-yl)methyl]pyrazole-4-carboxamide] | 
< 4.40 | 51% | 6.37 | Nc1nn(Cc2ccc(C(=O)N3CCCC3)cc2)cc1C(=O)NCCOc1cccc(Cl)c1 [Example 51, 3-amino-N-[2-(3-chlorophenoxy)ethyl]-1-({4-[(pyrrolidin-1-yl)carbonyl]phenyl}methyl)pyrazole-4-carboxamide] | 
< 4.40 | 0% | < 5.00 | COc1cc(Cn2cc(C(=O)NCCOc3cccc(Cl)c3)c(N)n2)ccn1 [Example 73, 3-amino-N-[2-(3-chlorophenoxy)ethyl]-1-[(2-methoxypyridin-4-yl)methyl]pyrazole-4-carboxamide] | 
< 4.40 | 4% | 5.15 | CCOC(=O)c1cccc(Cn2cc(C(=O)NCCOc3cccc(Cl)c3)c(N)n2)c1 [Example 62, ethyl 3-[(3-amino-4-{[2-(3-chlorophenoxy)ethyl]carbamoyl}pyrazol-1-yl)methyl]benzoate] | 
< 4.40 | 1% | 5.27 | COC(=O)c1ccc(Cn2cc(C(=O)NCCOc3cccc(Cl)c3)c(N)n2)cc1 [Example 58, methyl 4-[(3-amino-4-{[2-(3-chlorophenoxy)ethyl]carbamoyl}pyrazol-1-yl)methyl]benzoate] | 
